Measurements published in publication PMC6947571, “An Orthologue of the Retinoic Acid Receptor (RAR) Is Present in the Ecdysozoa Phylum Priapulida” (Genes, 2019).

Biological target: T1, HsaRARα LBD (Homo sapiens, UniProt P10276)
T1 construct: gene RARA; glutathione S-transferase fusion (pGEX-4T-1), E. coli BL21(DE3)
T1 sequence (P10276 183-417 limits assumed): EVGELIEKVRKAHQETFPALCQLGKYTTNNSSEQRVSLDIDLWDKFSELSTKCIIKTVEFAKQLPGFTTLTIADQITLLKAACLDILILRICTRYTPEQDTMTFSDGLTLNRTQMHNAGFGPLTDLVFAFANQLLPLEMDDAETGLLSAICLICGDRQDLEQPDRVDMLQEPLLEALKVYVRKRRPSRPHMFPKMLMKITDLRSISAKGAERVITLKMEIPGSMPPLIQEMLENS
Test: competitive radioligand binding, hydroxyapatite precipitation
Conditions: 4 °C, labelled compound, positive control

Compound	competitive radioligand binding, hydroxyapatite precipitation (10 nM [3H]ATRA or [3H]9cisRA displaced by unlabelled 9cisRA)	competitive radioligand binding, hydroxyapatite precipitation (10 nM [3H]ATRA displaced by unlabelled ATRA)
CC1=C(/C=C/C(C)=C\C=C\C(C)=C\C(=O)O)C(C)(C)CCC1 [9cisRA]	Competition by ATRA and 9cisRA with [^3H]ATRA and [^3H]9cisRA for binding to the LBD	
CC1=C(/C=C/C(C)=C/C=C/C(C)=C/C(=O)O)C(C)(C)CCC1 [ATRA]		Competition by ATRA and 9cisRA with [^3H]ATRA and [^3H]9cisRA for binding to the LBD
